Measured values from patent US10544186B2, “Process for the synthesis of amide bonds with the aid of novel catalysts” (Merck Patent GmbH, priority 2016, dated 2020).
Like-named read-outs stand apart in the source and are kept apart here.

Test: Solubility of the amide linking reagents in organic solvents
Type: physicochemical
Settings: for solubility: organic solvent or mixture, thermodynamic from solid
Method: All solubility determinations are carried out in a tared gas-tight 4 ml bottle with magnetic stirrer bar. The amide linking reagent (at least 5 mg) is weighed out and a certain amount of the solvent to be investigated is added. The mixture is stirred for 2-5 minutes. If undissolved solid is still present, solvent (50-100 μl) is additionally added, and the mixture is stirred again. As soon as a clear solution is present, the experiment is terminated.

[1] = solvent 9CH2Cl2:1CH3CN, read-out: solubility in 9CH2Cl2:1CH3CN
[2] = solvent CH2Cl2, read-out: solubility in CH2Cl2
[3] = solvent CH3CN, read-out: solubility in CH3CN
[4] = solvent DMF, read-out: solubility in DMF
[5] = solvent Hexane, read-out: solubility in Hexane
[6] = solvent THF, read-out: solubility in THF
[7] = solvent Toluene, read-out: solubility in Toluene

## S-(1-Oxido-2-pyridyl)-N,N,N′,N′-tetramethylthiouronium tris(pentafluoroethyl)trifluorophosphate [OTT-FAP]
Solvent 9CH2Cl2:1CH3CN
  solubility in 9CH2Cl2:1CH3CN: >2000 mg/mL
Solvent CH2Cl2
  solubility in CH2Cl2: 690 mg/mL
Solvent CH3CN
  solubility in CH3CN: >2000 mg/mL
Solvent DMF
  solubility in DMF: >2000 mg/mL
Solvent Hexane
  solubility in Hexane: <1.2 mg/mL
Solvent THF
  solubility in THF: 1400 mg/mL
Solvent Toluene
  solubility in Toluene: <1.2 mg/mL

## CN(C)C(n1n[n+]([O-])c2ccccc21)=[N+](C)C.F[P-](F)(F)(F)(F)F [HBTU, 1-(dimethylamino(dimethylamonium-1-ylidene)methyl)-1H-benzo[d][1,2,3]triazole 3-oxide hexafluorophosphate, reference compound]
Solvent 9CH2Cl2:1CH3CN
  solubility in 9CH2Cl2:1CH3CN: <2.8 mg/mL
Solvent CH2Cl2
  solubility in CH2Cl2: <1.1 mg/mL
Solvent CH3CN
  solubility in CH3CN: 124 mg/mL
Solvent DMF
  solubility in DMF: 200 mg/mL
Solvent Hexane
  solubility in Hexane: <1.2 mg/mL
Solvent THF
  solubility in THF: <3.6 mg/mL
Solvent Toluene
  solubility in Toluene: <1.2 mg/mL

## (Benzotriazol-1-yloxy)tris(pyrrolidino)phosphonium tris(pentafluoroethyl)trifluorophosphate [PyBOP-FAP]
Solvent 9CH2Cl2:1CH3CN
  solubility in 9CH2Cl2:1CH3CN: >1500 mg/mL
Solvent CH2Cl2
  solubility in CH2Cl2: >1650 mg/mL
Solvent CH3CN
  solubility in CH3CN: >1550 mg/mL
Solvent DMF
  solubility in DMF: >1550 mg/mL
Solvent Hexane
  solubility in Hexane: <1.2 mg/mL
Solvent THF
  solubility in THF: >1500 mg/mL
Solvent Toluene
  solubility in Toluene: 5.0 mg/mL

## O-Pentafluorophenyl-N,N,N′,N′-tetramethyluronium tris(pentafluoroethyl)trifluorophosphate [PfTU-FAP]
Solvent 9CH2Cl2:1CH3CN
  solubility in 9CH2Cl2:1CH3CN: >2000 mg/mL
Solvent CH2Cl2
  solubility in CH2Cl2: 1000 mg/mL
Solvent CH3CN
  solubility in CH3CN: >2000 mg/mL
Solvent DMF
  solubility in DMF: >2000 mg/mL
Solvent Hexane
  solubility in Hexane: <1.2 mg/mL
Solvent THF
  solubility in THF: 1000 mg/mL
Solvent Toluene
  solubility in Toluene: <1.2 mg/mL

## CN(C)C(Oc1c(F)c(F)c(F)c(F)c1F)=[N+](C)C.F[P-](F)(F)(F)(F)F [PfTU, O-pentafluorophenyl-N,N,N′,N′-tetramethyluronium hexafluorophosphate, reference compound]
Solvent 9CH2Cl2:1CH3CN
  solubility in 9CH2Cl2:1CH3CN: 2.5 mg/mL
Solvent CH2Cl2
  solubility in CH2Cl2: <1.2 mg/mL
Solvent CH3CN
  solubility in CH3CN: 1000 mg/mL
Solvent DMF
  solubility in DMF: 1000 mg/mL
Solvent Hexane
  solubility in Hexane: <1.2 mg/mL
Solvent THF
  solubility in THF: <1.2 mg/mL
Solvent Toluene
  solubility in Toluene: <1.2 mg/mL

## CN(C)C(Sc1cccc[n+]1[O-])=[N+](C)C.F[P-](F)(F)(F)(F)F [HOTT, S-(1-oxido-2-pyridyl)-N,N,N′,N′-tetramethylthiouronium hexafluorophosphate, reference compound]
[1]
  solubility: 180 mg/mL
[2]
  solubility: 59 mg/mL
[3]
  solubility: 810 mg/mL
[4]
  solubility: 690 mg/mL
[5]
  solubility: < 1.2 mg/mL
[6]
  solubility: < 1.2 mg/mL
[7]
  solubility: < 1.2 mg/mL

## CCOC(=O)C(C#N)=NO[C+](N(C)C)N1CCOCC1.F[P-](F)(F)(F)(F)F [COMU, (1-cyano-2-ethoxy-2-oxoethylideneaminooxy)dimethylaminomorpholinocarbenium hexafluorophosphate, reference compound]
[1]
  solubility: 294 mg/mL
[2]
  solubility: 82 mg/mL
[3]
  solubility: 565 mg/mL
[4]
  solubility: 530 mg/mL
[5]
  solubility: < 1.2 mg/mL
[6]
  solubility: 4.1 mg/mL
[7]
  solubility: 3.2 mg/mL
